Test results reported in a melting point compilation (Tetko et al.; mined from patent text by program, amines drawn as free bases though some values may be those of a salt).

Row | melting point [°C] | Compound
1 | 149 to 150 | CNC(=O)C(SC)c1cccc(C(=O)c2ccccc2)c1N (stereo not drawn)
2 | 128 to 129 | COC(C)=Nc1cccc(O)n1
3 | 143 | CCOC(=O)Nc1ccc(C(c2ccccc2)n2ccnc2)cc1CO (stereo not drawn)
4 | 96 to 98 | O=C(OCc1ccccc1)[C@@H]1CCCN1C(=O)CNC1Cc2ccccc2C1
5 | 221 | NCCCCCC(=O)Nc1cccc(C(=O)NCCC(=O)O)c1
6 | 76.7 | CC(O)c1cc(Br)ccc1OCc1ccccc1 (stereo not drawn)
7 | 174 to 176 | Cn1cc(C(=O)NCc2ccc(Cl)cc2)c(=O)c2sc(C=O)c(COCC[Si](C)(C)C)c21
8 | 137 to 139 | CCCc1cc(C(=O)NC2=NC(=O)CN2C)ccc1OC(C(=O)NS(=O)(=O)c1ccc(C(C)C)cc1)c1ccc2c(c1)OCO2 (stereo not drawn)
9 | > 250 | O=C1N(Cc2cnc(O)nc2)c2ccccc2C12COc1cc3c(cc12)OCCO3 (stereo not drawn)
10 | 178 to 180 | NS(=O)(=O)c1ccc2c(c1)CNC(C1CCCCC1)N2 (stereo not drawn)
11 | 187 to 188 | COc1cc(OC)c2c(=O)[nH]c(-c3ccc4[nH]c(CN(C)C)cc4c3)nc2c1
12 | 96 to 98 | COc1cc(CCO)cc(OC)c1-c1ccc(C[C@H](NC(=O)c2c(Cl)cccc2Cl)C(=O)OC(C)(C)C)cc1
13 | 179 to 180 | CCN(CC)C(=O)COC(=O)CCc1cc(S(C)(=O)=O)cc(-c2nc(=O)c3ccc(Cl)cc3s2)n1
14 | 194 to 204 | CS(=O)c1onc(-c2ccccc2)c1-c1ccc(S(N)(=O)=O)cc1 (stereo not drawn)
15 | 216 to 217 | O=C1Nc2ccccc2Sc2cc(C(F)(F)F)ccc21
16 | 82 | Cc1cc(-n2cncn2)c2cccc(OCc3c(Cl)ccc(S(=O)(=O)N4CCC[C@H]4C(=O)NCC4CCN(CCOCCO)CC4)c3Cl)c2n1
17 | 154 to 156 | NC(=S)CN1CCCC1=S
18 | 191 | COc1ccc(CNC(=O)c2ccc3c(c2)c(=O)n(Cc2ccccc2)c(=O)n3C)cc1
19 | 227 to 229 | CN(C)c1ccc(C2(c3ccc(N(C)C)cc3N(C)C)OC(=O)c3c(Cl)c(Cl)c(Cl)c(Cl)c32)cc1 (stereo not drawn)
20 | 96 to 99 | CCCn1cc(Cc2ccc(C(=O)NS(=O)(=O)c3ccccc3Br)cc2OC)c2cc(CCC(C)C(=O)N(C)C)ccc21 (stereo not drawn)
21 | 190 | O=C(Nc1nc(C(Cl)(Cl)Cl)ns1)c1ccccc1
22 | 99.5 to 102 | CN(C)c1ccc(CNC(=O)c2cccnc2Oc2ccc(F)cc2)cc1

Row | melting point [°C] | Compound
23 | 113 to 114 | NSc1nccnc1Cl
24 | 113 to 114 | COc1ccc([C@@H]2Sc3ccccc3N(CCN(C)C)C(=O)[C@@H]2OC(=O)c2ccc([N+](=O)[O-])cc2)cc1
25 | 265 to 266 | CCOC(=O)c1c(S)nc2cc(OC)c(OC)cc2c1-c1ccc(OC)c(OC)c1
26 | 288 to 290 | COc1cc2nc(N3CCc4c(ncnc4N4CCOCC4)C3)[nH]c(=O)c2cc1OC
27 | 267 to 268 | O=C1CCC(c2ccc(NC(=O)C3CC3(Cl)Cl)cc2)=NN1 (stereo not drawn)
28 | 166 to 170 | O=C(Cl)c1c(Cl)nc2ccc(Br)cc2c1-c1ccccc1
29 | 108 | O=S(=O)(CCOc1ccc(Cl)cc1)c1ccc(Cl)cc1
30 | 214 to 216 | CCOC(=O)c1cnc2c([N+](=O)[O-])cc(CN3CCOCC3)cc2c1O
31 | 148 to 150 | O=C(O)C(CC1CCCCC1)c1ccc(OCc2ccc3ccccc3n2)cc1 (stereo not drawn)
32 | 122 to 123 | O=C1C[C@H]2CCCC[C@]23c2cccn2CCN13 (relative stereo)
33 | 136 to 137 | CCOc1nn(Cc2ccc(OC)c(OCc3nc(-c4ccccc4)oc3C)c2)cc1CCC(=O)O
34 | 105 to 107 | CSc1nccc(CC(=O)c2ccc(Cl)cc2Cl)n1
35 | 153 to 154 | CCCOc1cccc(CCOc2ccc3c(c2)C=C(C(=O)Nc2ccc(CN(C)C4CCOCC4)cc2)CCS3(=O)=O)c1
36 | 167 to 168 | CCOCc1nc2c(N)nc3cc(-c4cccc(C(=O)N5CCOCC5)c4)cnc3c2n1CC(C)(C)F
37 | 154 to 156 | Cc1ccc(NC(=O)OCc2ccco2)cc1NC(=O)OCc1ccco1
38 | 185 to 188 | O=C1CCC2N1CC(=O)N2c1ccccc1 (stereo not drawn)
39 | 42 to 43.5 | CCCN(CCC)c1c([N+](=O)[O-])cc(C)c(C)c1[N+](=O)[O-]
40 | 149 | CCOC(=O)c1c(-c2cccc(Cl)c2)c2cc(C(c3nc(-c4ccccc4)cs3)n3ccnc3-c3ccccc3)ccc2[nH]c1=O (stereo not drawn)
41 | 215 to 217 | Cc1ccc(-c2ccc3c(c2)C=C(C(=O)Nc2ccc(C(O)c4ccccn4)cc2)CCO3)cc1 (stereo not drawn)
42 | 92 to 94 | CN1CN(C(=O)c2c(F)cccc2F)C(=O)N(c2ccc(SC(F)(F)F)cc2F)C1
43 | 48 to 50 | OC(Cc1ccc(F)cc1)c1ccc(F)cc1 (stereo not drawn)
44 | 209 to 210 | C(=Cc1ccc(-c2nnc(-c3ccccc3)o2)cc1)c1ccc(-c2cnn(-c3ccccc3)n2)cc1

Row | melting point [°C] | Compound
45 | 81 to 86 | CCOc1ccc(C=NO)cc1
46 | 96 to 98 | CCOC(=O)/C=C/c1cc(O)ccc1Br
47 | 117 to 124 | CC(C)(O)CC(O)c1cccc(OCc2ccc3ccccc3n2)c1 (stereo not drawn)
48 | 104 to 110 | CCOC(OCC)c1nc(C2CC2)nc(N)c1Cl
49 | > 250 | O=Cc1c[nH]c2c1ccc1c3cc(-c4ccc(OC(F)(F)F)cc4)ccc3[nH]c12
50 | 222 to 225 | O=c1cc(-c2ccccc2)n(-c2ccccc2)c(-c2ccccc2)c1C(F)(F)F
51 | 194 to 196 | CCOCc1nc2c(N)nc(C)c(C)c2n1CCCCS(=O)(=O)NC
52 | 166 to 167 | CCN1C(=O)C(C)(C)C(=O)N(C)c2cc(CN(CCn3cc(C)c4occc4c3=O)Cc3cnc(C)nc3)ccc21
53 | 235 to 236 | NC(=O)c1cc(O)c(O)c([N+](=O)[O-])c1
54 | 128 to 130 | Clc1cc(-c2cnco2)nc(Cl)c1Cl
55 | 198 to 199 | N#CN=C(Nc1ccncc1)NC1CCCCCCC1
56 | 215 | CC(=O)N(C)Nc1ccnc2c(NC(=O)c3c(Cl)cccc3Cl)cccc12
57 | 134 to 136 | COc1ccc2c(c1)c(Cc1nc(-c3ccc(F)cc3F)cs1)c(C)n2C(=O)c1ccc(Cl)cc1
58 | 173 to 175 | N#Cc1ccc(N(Cc2ccc(OCc3ccccc3)cc2)n2cnnc2)cc1-c1ccc(C(F)(F)F)cc1
59 | 139 to 140 | NCC(=O)Nc1cccc(C(N)=O)c1
60 | 72 to 74 | COC(=O)C(Cc1cc([N+](=O)[O-])ccc1Cl)C(=O)OC
61 | 253 to 254 | CCCCC(CC)c1nc2cc(O)c(C#N)c(C)n2n1 (stereo not drawn)
62 | 159 to 162 | Cc1nc2c(N)nc3c(c2n1CCCCS(=O)(=O)c1ccc(F)cc1)CCCC3
63 | 209 to 212 | CCCCc1nc2cccc(C(=O)O)c2n1Cc1ccc(-c2cncnc2-c2nnn[nH]2)cc1
64 | 113 to 114 | CCN(CC)c1nc(Cl)nc2c(Cl)ncnc12
65 | 264 to 265 | Cc1ccc(CCc2n[nH]c3c2c(=O)n(-c2ccccc2)c2ncccc32)cc1
66 | 112 to 114 | CCOc1ccc2nc(C)cc(=O)n2c1C

Row | Compound | melting point [°C]
67 | NNC(=O)c1cccc(Cc2c[nH]cn2)c1O | 190
68 | CC1(C)C(=O)N(c2ccc(C#N)c(C(F)(F)F)c2)C(=O)N1CCCCO | 102 to 103
